Counter-ions that a name gives are not always drawn. Like-named read-outs stand apart in the source and are kept apart here.
What was measured:
[1] = molecular target: T1, recombinant full-length WRN protein (1-1432) (Homo sapiens, UniProt Q14191); assay: WRN unwinding activity, fluorogenic 384-well assay (Example A); assay type: biochemical; settings: WRN unwinding activity, 4 hr; Table 2; read-out: 4 hr UNW pIC50 (converted)
T1 construct: recombinant full-length WRN protein (1-1432)
Outline: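 200 pM enzyme (2× stock) preincubated with compound 4 h at ambient temperature, then 200 μM ATP and 12 nM quenched TAMRA-labelled dsDNA (2× stocks) added for 60 min; EDTA-quenched. Buffer 25 mM Tris pH 8.0, 5 mM NaCl, 2 mM MgCl2. Fluorescence at 525/598 nm; pIC50 from four-parameter fit.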

[2] = Cell culture media unbound percentage and stability by rapid equilibrium dialysis (Example C); assay type: in vitro ADME; settings: bovine, cell assay medium (RPMI-1640 with 10% fetal bovine serum), pH 7.4, rapid equilibrium dialysis, 4 hours at 37° C., read-out: Cell Culture Media Binding (% unbound)
Outline: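 Compound spiked into cell culture medium at nominal 1 μM and dialysed against PBS (100 mM sodium phosphate + 150 mM NaCl, pH 7.4) by rapid equilibrium dialysis, triplicate, 4 h at 37° C with shaking. LC-MS/MS peak area ratios gave percent unbound (receiver/donor) and percent stability (240 min vs 0 min).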

[3] = test system: SW48 human colorectal cancer cells; assay: Calculated free drug potency in SW48 cell assay, corrected with media free fraction (Example C); assay type: cell-based; settings: Homo sapiens, SW48, SW48 pCC50 corrected with measured free fraction in cell assay media
Outline: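 Compound spiked at nominal 1 μM into cell assay medium and dialysed against PBS (100 mM sodium phosphate, 150 mM NaCl, pH 7.4) by rapid equilibrium dialysis, 4 h, 37 °C, shaking. Percent unbound from LC-MS/MS peak area ratios (240 min vs 0 min); cell assay concentrations corrected by this free fraction.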

[4] = test system: SW48 human colorectal cancer cells (MSI-H cancer cells); assay: SW48 cell viability, CellTiter-Glo, 120 hours (Example B); settings: for CC50: Homo sapiens
[5] = SW48, 120 h, read-out: SW48 pCC50, SW48 cell viability, 120 hours incubation (converted), Table 2
[6] = SW48, read-out: SW48 pCC50, measured potency from Example B, as repeated in Table 3 (converted)

T1 sequence (Q14191 whole entry): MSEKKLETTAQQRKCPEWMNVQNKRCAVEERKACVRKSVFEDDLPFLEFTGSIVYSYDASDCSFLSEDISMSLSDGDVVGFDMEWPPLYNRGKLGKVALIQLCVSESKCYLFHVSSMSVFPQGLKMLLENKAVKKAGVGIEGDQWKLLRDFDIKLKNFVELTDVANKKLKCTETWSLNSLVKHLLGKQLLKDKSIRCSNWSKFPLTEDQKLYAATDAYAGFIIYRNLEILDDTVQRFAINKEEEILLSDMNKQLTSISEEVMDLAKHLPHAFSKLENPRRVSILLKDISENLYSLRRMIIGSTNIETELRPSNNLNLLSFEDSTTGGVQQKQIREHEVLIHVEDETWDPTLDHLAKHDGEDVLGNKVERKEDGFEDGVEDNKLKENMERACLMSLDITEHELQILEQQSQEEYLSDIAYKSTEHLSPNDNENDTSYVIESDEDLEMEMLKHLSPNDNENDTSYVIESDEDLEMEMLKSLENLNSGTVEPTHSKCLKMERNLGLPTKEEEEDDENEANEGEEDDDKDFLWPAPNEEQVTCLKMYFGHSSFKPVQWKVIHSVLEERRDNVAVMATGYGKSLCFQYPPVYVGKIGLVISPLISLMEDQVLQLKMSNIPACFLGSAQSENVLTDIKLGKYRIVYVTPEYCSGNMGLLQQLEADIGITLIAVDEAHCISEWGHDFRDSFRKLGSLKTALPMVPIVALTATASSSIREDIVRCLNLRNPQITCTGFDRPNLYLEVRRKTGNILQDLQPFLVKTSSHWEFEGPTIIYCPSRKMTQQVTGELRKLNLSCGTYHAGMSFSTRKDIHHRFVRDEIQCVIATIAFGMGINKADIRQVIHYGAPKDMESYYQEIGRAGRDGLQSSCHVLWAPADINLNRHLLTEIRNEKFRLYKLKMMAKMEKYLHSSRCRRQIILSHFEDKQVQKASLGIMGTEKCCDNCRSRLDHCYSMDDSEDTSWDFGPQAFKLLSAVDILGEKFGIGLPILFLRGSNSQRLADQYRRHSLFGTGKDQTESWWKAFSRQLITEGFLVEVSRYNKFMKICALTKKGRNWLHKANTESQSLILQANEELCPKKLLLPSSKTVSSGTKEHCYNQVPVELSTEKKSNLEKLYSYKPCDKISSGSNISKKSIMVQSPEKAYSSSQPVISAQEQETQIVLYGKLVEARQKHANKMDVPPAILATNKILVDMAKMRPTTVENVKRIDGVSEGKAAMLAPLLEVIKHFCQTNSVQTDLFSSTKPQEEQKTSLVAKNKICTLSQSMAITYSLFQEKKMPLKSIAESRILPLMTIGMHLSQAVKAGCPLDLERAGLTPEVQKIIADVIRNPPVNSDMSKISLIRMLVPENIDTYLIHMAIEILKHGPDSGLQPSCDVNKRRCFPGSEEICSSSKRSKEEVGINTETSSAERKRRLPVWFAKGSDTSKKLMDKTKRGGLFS

SMILES	IC50 [1] [nM]	fraction unbound at 4 h, 1 µM [2]	CC50 [3] [nM]	CC50 [4, 5] [nM]	CC50 [4, 6] [nM]	SW48 pCC50 ([4]; SW48 cell viability, 120 hours incubation, Table 2)
Cc1nc2cc(S(=O)(=O)N(C)c3ccc([C@H]4C[C@@H](N5CC[C@H](F)C5)C[C@@H](C(=O)Nc5ccc(C(F)(F)F)cc5F)[C@@H]4C(=O)O)cc3)ccc2n1C (stereo in doubt) [Example 377, rel-(1R*,2R*,4R*,6S*)-2-((2-fluoro-4-(trifluoromethyl)phenyl)carbamoyl)-4-((S)-3-fluoropyrrolidin-1-yl)-6-(4-((N,1,2-trimethyl-1H-benzo[d]imidazole)-5-sulfonamido)phenyl)cyclohexane-1-carboxylic acid]	5.01	0.071	8.91	126	126	
CN(C)Cc1cccc(S(=O)(=O)N(C)c2ccc([C@H]3CCC[C@@H](C(=O)Nc4ccc(C(F)(F)F)cc4F)[C@@H]3C(=O)O)cc2)c1 [Example 97]	2	0.241	240	1000	1000	
CN(c1ccc([C@H]2CCC[C@@H](C(=O)Nc3ccc(C(F)(F)F)cc3F)[C@@H]2C(=O)O)cc1)S(=O)(=O)c1ccc2c(c1)nc(CCN)n2C [Example 267, (1R,2S,6R)-2-(4-((2-(2-aminoethyl)-N,1-dimethyl-1H-benzo[d]imidazole)-5-sulfonamido)phenyl)-6-((2-fluoro-4-(trifluoromethyl)phenyl)carbamoyl)cyclohexane-1-carboxylic acid hydrochloride]	1	0.226	178	794	794	
Cc1nc2cc(S(=O)(=O)N(C)c3ccc([C@H]4C[C@@H](OC5CCC5)C[C@@H](C(=O)Nc5ccc(C(F)(F)F)cc5F)[C@@H]4C(=O)O)cc3)ccc2n1C (stereo in doubt) [Example 325, rel-(1R,2R,4R,6S)-4-cyclobutoxy-2-((2-fluoro-4-(trifluoromethyl)phenyl)carbamoyl)-6-(4-((N,1,2-trimethyl-1H-benzo[d]imidazole)-5-sulfonamido)phenyl)cyclohexane-1-carboxylic acid]	2	0.0862	17.4	200	200	
Cc1nc2cc(S(=O)(=O)N(C)c3ccc([C@@H]4C[C@H](NCC(F)(F)F)C[C@H](C(=O)Nc5ccc(C(F)(F)F)cc5F)[C@H]4C(=O)O)cc3)ccc2n1C (stereo in doubt) [Example 333, rel-(1R,2R,4R,6S)-2-((2-fluoro-4-(trifluoromethyl)phenyl)carbamoyl)-4-((2,2,2-trifluoroethyl)amino)-6-(4-((N,1,2-trimethyl-1H-benzo[d]imidazole)-5-sulfonamido)phenyl)cyclohexane-1-carboxylic acid]	126	0.326	3240	10000		
CN(c1ccc([C@H]2CCC[C@@H](C(=O)Nc3ccc(C(F)(F)F)cc3F)[C@@H]2C(=O)O)cc1)S(=O)(=O)c1cc(I)c2occc2c1 [Example 94, (1R,2R,6S)-2-((2-fluoro-4-(trifluoromethyl)phenyl)carbamoyl)-6-(4-((7-iodo-N-methylbenzofuran)-5-sulfonamido)phenyl)cyclohexane-1-carboxylic acid]	50.1	0.0014	5.62		3980	5.4
CCO[C@@H]1C[C@H](c2ccc(N(C)S(=O)(=O)c3ccc4c(c3)ncn4C)cc2)[C@@H](C(=O)O)[C@H](C(=O)Nc2ccc(C(F)(F)F)cc2F)C1 [Example 140, (1R,2S,4R,6R)-2-(4-((N,1-dimethyl-1H-benzo[d]imidazole)-5-sulfonamido)phenyl)-4-ethoxy-6-((2-fluoro-4-(trifluoromethyl)phenyl)carbamoyl)cyclohexane-1-carboxylic acid]	2.51	0.101	15.8	158	158	
